The values below come from ChEMBL document CHEMBL1201862, “PubChem BioAssay data set” (2004).

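Dose response: 5 concentrations. Exposure: 48 h. Format: 96-well plates. Endpoint: linear interpolation; highest concentration if not reached. GI50 = concentration required for 50% inhibition of growth.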 The source made the active and inactive calls. Cut-off read from the data, not from the text of the source: active = GI50 up to about 1.1 µM and inactive = higher. A value given as a limit tells only on which side of the number the result lay.

Among the test systems are SF-539; MDA-N; OVCAR-4; PC-3; Hs-578T; OVCAR-8; SR; SK-MEL-5; SK-OV-3; LOX IMVI; HCC 2998; NCI-H522; A549; MOLT-4; SN12C; SNB-19; NCI-H460; K562; HOP-92.
Holding throughout (assay): DTP human tumour cell line panel, 48 h

As for `CC1=C2CC(C)(C)/C=C\C(=O)/C(C)=C\C3=C[C@H](C)C[C@]3(O2)C1=O`, the concentration for 50% growth inhibition (GI50) (as a rule, the concentration that inhibits growth by half) with SF-539 is 0.946 µM (active); with MDA-N, 0.914 µM (active); in the experiment on OVCAR-4, 1.52 µM (inactive); with PC-3, 2.02 µM (inactive); with Hs-578T it was 2.26 µM (inactive); with OVCAR-8, 0.9 µM (active). Also, the GI50 is 0.243 µM (active) with SR; 1.48 µM (inactive) in the experiment on SK-MEL-5; 9.51 µM (inactive) with SK-OV-3; 0.741 µM (active) in the experiment with LOX IMVI; 4.85 µM (inactive) in the experiment with HCC 2998; 0.201 µM (active) with NCI-H522. Moreover, the GI50 with A549 was 4.47 µM (inactive); in the experiment with MOLT-4 it was 0.195 µM (active); in the experiment on SN12C it was 1.42 µM (inactive); in the experiment with SNB-19, 17.2 µM (inactive); with NCI-H460, 4.71 µM (inactive); in the experiment with K562, 1.51 µM (inactive). In addition, the GI50 with HOP-92 is 1.09 µM (active).
`CCCCOC(=O)NC(c1ccccc1)C(O)C(=O)OC1C[C@@]2(O)C(OC(=O)c3ccccc3)C3[C@](C)(C(=O)[C@H](OC(C)=O)C(=C1C)C2(C)C)[C@@H](O)C[C@H]1OC[C@@]31OC(C)=O` (stereo partly specified): the GI50 is 0.00305 µM (active) in the experiment on SF-539; 0.00176 µM (active) with MDA-N; 2.92 µM (inactive) in the experiment with OVCAR-4; 0.0171 µM (active) in the experiment with PC-3; 0.00191 µM (active) in the experiment with Hs-578T; 0.0117 µM (active) with OVCAR-8. The concentration for 50% growth inhibition (GI50) was 0.00499 µM (active) in the experiment on SR; 0.0102 µM (active) in the experiment on SK-MEL-5; 0.0205 µM (active) in the experiment with SK-OV-3; 0.00427 µM (active) in the experiment with LOX IMVI; 0.011 µM (active) in the experiment with HCC 2998; 0.00234 µM (active) in the experiment on NCI-H522. The GI50 was 0.00873 µM (active) in the experiment on A549; 0.0407 µM (active) with MOLT-4; 0.0157 µM (active) in the experiment with SN12C; 0.0361 µM (active) in the experiment on SNB-19; 0.002 µM (active) with NCI-H460; 0.00447 µM (active) in the experiment on K562. Also, the GI50 in the experiment on HOP-92 is 5.7 µM (inactive).
As for `CNc1nc2n(CCO)c(-c3ccccc3)c(-c3ccccc3)nc-2c(=O)n1`, the GI50 in the experiment with SF-539, in the experiment with MDA-N, in the experiment with OVCAR-4, in the experiment on PC-3, with Hs-578T and in the experiment on OVCAR-8 was > 50 µM (inactive) in each case. Moreover, the GI50 in the experiment with SR, in the experiment with SK-MEL-5, in the experiment with SK-OV-3, with LOX IMVI, in the experiment on HCC 2998 and with NCI-H522 was > 50 µM (inactive) throughout. Also, the GI50 in the experiment on A549, in the experiment on MOLT-4, in the experiment on SN12C, with SNB-19, with NCI-H460 and with K562 was > 50 µM (inactive) throughout. For the same compound, the GI50 in the experiment on HOP-92 is > 50 µM (inactive).
With `N=C(N)NS(=O)(=O)c1ccc(NC(=O)c2ccc3nc4ccccc4c(N)c3c2)cc1`, the GI50 with SF-539, in the experiment with MDA-N, in the experiment with OVCAR-4, in the experiment on PC-3, in the experiment on Hs-578T and with OVCAR-8 was > 100 µM (inactive) throughout. In addition, the GI50 in the experiment on SR, with SK-MEL-5, with SK-OV-3, in the experiment with LOX IMVI, with HCC 2998 and in the experiment with NCI-H522 was > 100 µM (inactive) each time. Besides, the GI50 in the experiment on A549, in the experiment with MOLT-4, with SN12C, in the experiment with SNB-19, with NCI-H460 and in the experiment on K562 was > 100 µM (inactive) each time. Moreover, the GI50 in the experiment with HOP-92 is > 100 µM (inactive).
